According to patent US20250304567A1, “PYRROLIDIONE DERIVATIVES AS INHIBITORS OF NF KAPPA B INDUCING KINASE” (priority 2022, published 2025):
Read-outs that look alike come from different tables or passages of the source.

Columns and labels:
[1] = target: Recombinant Human NF-kappaB-Inducing Kinase (NIK/MAP3K14) (Homo sapiens, UniProt Q99558); test: Inhibition of auto-phosphorylation of recombinant human NIK/MAP3K14 activity (AlphaScreen); type: biochemical; details: 5 μM ATP, 1 nM NIK, average if tested more than once
Sequence of Recombinant Human NF-kappaB-Inducing Kinase (NIK/MAP3K14) (Q99558 whole entry): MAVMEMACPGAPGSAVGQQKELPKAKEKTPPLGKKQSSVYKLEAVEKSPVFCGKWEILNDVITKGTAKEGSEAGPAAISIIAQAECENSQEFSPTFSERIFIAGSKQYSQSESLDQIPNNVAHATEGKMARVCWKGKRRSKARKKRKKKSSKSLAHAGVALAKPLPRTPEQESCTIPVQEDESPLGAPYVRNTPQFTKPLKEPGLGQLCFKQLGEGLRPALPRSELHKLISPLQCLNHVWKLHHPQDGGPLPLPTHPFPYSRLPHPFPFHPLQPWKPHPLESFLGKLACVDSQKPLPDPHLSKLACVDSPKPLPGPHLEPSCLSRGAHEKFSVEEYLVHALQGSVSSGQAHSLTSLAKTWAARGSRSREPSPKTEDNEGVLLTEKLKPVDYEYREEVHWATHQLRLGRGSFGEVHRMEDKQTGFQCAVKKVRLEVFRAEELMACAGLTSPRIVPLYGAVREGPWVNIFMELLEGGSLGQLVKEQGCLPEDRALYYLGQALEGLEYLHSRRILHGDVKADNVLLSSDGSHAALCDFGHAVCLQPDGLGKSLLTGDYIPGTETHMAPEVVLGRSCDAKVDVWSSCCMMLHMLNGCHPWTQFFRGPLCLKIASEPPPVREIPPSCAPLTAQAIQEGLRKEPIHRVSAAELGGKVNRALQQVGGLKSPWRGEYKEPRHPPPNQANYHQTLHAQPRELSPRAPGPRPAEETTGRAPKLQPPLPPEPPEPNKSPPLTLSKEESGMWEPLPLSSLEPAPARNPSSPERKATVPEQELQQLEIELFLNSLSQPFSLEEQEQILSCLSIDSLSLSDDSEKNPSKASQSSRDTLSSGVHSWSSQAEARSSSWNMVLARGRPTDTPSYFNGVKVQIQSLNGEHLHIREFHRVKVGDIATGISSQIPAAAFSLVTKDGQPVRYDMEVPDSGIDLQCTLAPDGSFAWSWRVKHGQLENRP
Procedure, shortened: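 AlphaScreen detection of phospho-Ser176/180 after 1 nM GST-NIK auto-phosphorylates for 2 h at 25 °C with 5 μM ATP (50 mM Tris pH 7.5, 0.7% DMSO). IC50s come from sigmoidal curves of % inhibition against log dose, using enzyme-free, ATP-free low controls and full-activity high controls.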

[2] = system: p-IKKa levels in L363 (NIK translocated multiple myeloma) cells; test: Effect of compounds on p-IKKa levels in L363 (NIK translocated multiple myeloma) cells (AlphaLISA SureFire Ultra p-IKKa Ser176/180); type: cell-based, human; details: average if tested more than once, read-out: Assay 2 IC50
Procedure, shortened: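 Phospho-IKKa (Ser176/180) in lysates quantified by AlphaLISA after 6 h compound exposure, 11-point threefold dilutions, 0.3% DMSO. L363 cells were pre-stimulated overnight and assayed with 250 ng/ml BAFF and 10 μM MG132; % inhibition fitted sigmoidally for IC50, duplicate curves.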

[3] = Homo sapiens, L-363, p-IKKa levels in L363 cells

In the case of CN1CC[C@@](O)(c2cccc(-c3nc(-c4ccnc(Nc5cnn6c5NCCC6)n4)cs3)c2)C1=O [Example 54, (R)-3-hydroxy-1-methyl-3-(3-(4-(2-((4,5,6,7-tetrahydropyrazolo[1,5-a]pyrimidin-3-yl)amino)pyrimidin-4-yl)thiazol-2-yl)phenyl)pyrrolidin-2-one], the IC50 [1] is reported as under 0.1 µM and the IC50 [2, 3] is reported as 0.1 to 0.5 µM.
Work on CN1CC[C@@](O)(c2cccc(-c3nc(-c4ccnc(Nc5cn(C)nc5OC5CCCC5)n4)cs3)c2)C1=O [Example 95, (R)-3-(3-(4-(2-((3-(cyclopentyloxy)-1-methyl-1H-pyrazol-4-yl)amino)pyrimidin-4-yl)thiazol-2-yl)phenyl)-3-hydroxy-1-methylpyrrolidin-2-one] yielded an IC50 [1] of under 0.1 µM and an IC50 [2, 3] of 0.1 to 0.5 µM.
CN1CCC(O)(c2cc(F)cc(-c3csc(-c4ccnc(Nc5ccn(C)n5)n4)n3)c2)C1=O (single isomer, unassigned) [Example 26, 3-(3-fluoro-5-(2-(2-((1-methyl-1H-pyrazol-3-yl)amino)pyrimidin-4-yl)thiazol-4-yl)phenyl)-3-hydroxy-1-methylpyrrolidin-2-one] gave an IC50 [1] of over 0.501 µM and an IC50 ([2]; p-IKKa levels in L363 cells) of over 0.501 µM.
For CN1CC[C@@](O)(c2cccc(-c3nc(-c4ccnc(Nc5cc(Cl)n(C)n5)n4)cs3)c2)C1=O [Example 261, (R)-3-(3-(4-(2-((5-Chloro-1-methyl-1H-pyrazol-3-yl)amino)pyrimidin-4-yl)thiazol-2-yl)phenyl)-3-hydroxy-1-methylpyrrolidin-2-one], the IC50 [1] was under 0.1 µM and the IC50 [2, 3] was 0.1 to 0.5 µM.
Cc1nocc1Nc1nccc(-c2csc(-c3cccc([C@]4(O)CCN(C)C4=O)c3)n2)n1 [Example 275, (R)-3-Hydroxy-1-methyl-3-(3-(4-(2-((3-methylisoxazol-4-yl)amino)pyrimidin-4-yl)thiazol-2-yl)phenyl)pyrrolidin-2-one] showed an IC50 [1] of under 0.1 µM and an IC50 [2, 3] of under 0.1 µM.
Compound CN1CC[C@@](O)(c2cccc(-c3csc(-c4ccnc(Nc5cnn(C6CCS(=O)(=O)CC6)c5)n4)n3)c2)C1=O [Example 88, (R)-3-(3-(2-(2-((1-(1,1-dioxidotetrahydro-2H-thiopyran-4-yl)-1H-pyrazol-4-yl)amino)pyrimidin-4-yl)thiazol-4-yl)phenyl)-3-hydroxy-1-methylpyrrolidin-2-one] has an IC50 [1] of under 0.1 µM and an IC50 [2, 3] of 0.1 to 0.5 µM.
COCCOc1nn(CC(F)F)cc1Nc1nccc(-c2csc(-c3cccc([C@]4(O)CCN(C)C4=O)c3)n2)n1 [Example 11, (R)-3-(3-(4-(2-((1-(2,2-Difluoroethyl)-3-(2-methoxyethoxy)-1H-pyrazol-4-yl)amino)pyrimidin-4-yl)thiazol-2-yl)phenyl)-3-hydroxy-1-methylpyrrolidin-2-one] was tested, and the IC50 [1] was under 0.1 µM and the IC50 [2, 3] was under 0.1 µM.
In the case of CN1CC(Nc2nccc(-c3csc(-c4cccc([C@]5(O)CCN(C)C5=O)c4)n3)n2)CCC1=O (stereo partly shown) [Example 222], the IC50 [1] is reported as under 0.1 µM and the IC50 [2, 3] is reported as over 0.501 µM.
Cc1ccnc(CNc2nccc(-c3csc(-c4cccc([C@]5(O)CCN(C)C5=O)c4)n3)n2)n1 [Example 114, (R)-3-hydroxy-1-methyl-3-(3-(4-(2-(((4-methylpyrimidin-2-yl)methyl)amino)pyrimidin-4-yl)thiazol-2-yl)phenyl)pyrrolidin-2-one] was tested, and the IC50 [1] was 0.1 to 0.5 µM and the IC50 [2, 3] was over 0.501 µM.
With CN1CC[C@@](O)(c2cccc(-c3csc(-c4ccnc(Nc5ccn(C)n5)n4)n3)c2)C1=O [Example 3, (R)-3-hydroxy-1-methyl-3-(3-(2-(2-((1-methyl-1H-pyrazol-3-yl)amino)pyrimidin-4-yl)thiazol-4-yl)phenyl)pyrrolidin-2-one] the IC50 [1] was under 0.1 µM and the IC50 [2, 3] was under 0.1 µM.
CN1CCC(Nc2nccc(-c3csc(-c4cccc([C@]5(O)CCN(C)C5=O)c4)n3)n2)C1=O (stereo partly shown) [Example 201] showed an IC50 [1] of over 0.501 µM and an IC50 [2, 3] of over 0.501 µM.
With COc1cc(Nc2nccc(-c3nc(-c4cccc([C@]5(O)CCN(C)C5=O)c4)cs3)n2)n(C)n1 [Example 84, (R)-3-hydroxy-3-(3-(2-(2-((3-methoxy-1-methyl-1H-pyrazol-5-yl)amino)pyrimidin-4-yl)thiazol-4-yl)phenyl)-1-methylpyrrolidin-2-one] the IC50 [1] was over 0.501 µM and the IC50 [2, 3] was over 0.501 µM.
In the case of CC(=O)N1CC[C@H](Nc2nccc(-c3csc(-c4cccc([C@]5(O)CCN(C)C5=O)c4)n3)n2)C1 [Example 221], the IC50 [1] is reported as 0.1 to 0.5 µM and the IC50 [2, 3] is reported as over 0.501 µM.
With CCn1cc(Nc2nccc(-c3csc(-c4cccc([C@]5(O)CCN(C)C5=O)c4)n3)n2)c(C)n1 [Example 270, (R)-3-(3-(4-(2-((1-Ethyl-3-methyl-1H-pyrazol-4-yl)amino)pyrimidin-4-yl)thiazol-2-yl)phenyl)-3-hydroxy-1-methylpyrrolidin-2-one] the IC50 [1] was under 0.1 µM and the IC50 [2, 3] was under 0.1 µM.
Work on CC(Nc1nccc(-c2nc(-c3cccc(C4(O)CCN(C)C4=O)c3)cs2)n1)c1ccn(C)n1 (single isomer, unassigned) [Example 51] yielded an IC50 [1] of under 0.1 µM and an IC50 ([2]; p-IKKa levels in L363 cells) of 0.1 to 0.5 µM.
CN1CC[C@@](O)(c2cccc(-c3nc(-c4ccnc(N[C@@H]5CNC(=O)C5)n4)cs3)c2)C1=O [Example 171] was tested, and the IC50 [1] was under 0.1 µM and the IC50 [2, 3] was over 0.501 µM.
Compound CN1CC[C@@](O)(c2cccc(-c3nc(-c4ccnc(Nc5cnn(C6CCC6)c5)n4)cs3)c2)C1=O [Example 73, (R)-3-(3-(4-(2-((1-cyclobutyl-1H-pyrazol-4-yl)amino)pyrimidin-4-yl)thiazol-2-yl)phenyl)-3-hydroxy-1-methylpyrrolidin-2-one] has an IC50 [1] of under 0.1 µM and an IC50 [2, 3] of 0.1 to 0.5 µM.
CN1CC[C@@](O)(c2cccc(-c3nc(-c4ccnc(NCCc5cnn(C)c5)n4)cs3)c2)C1=O [Example 187] gave an IC50 [1] of under 0.1 µM and an IC50 [2, 3] of over 0.501 µM.
Cc1ncc(CNc2nccc(-c3csc(-c4cccc([C@]5(O)CCN(C)C5=O)c4)n3)n2)o1 [Example 110, (R)-3-hydroxy-1-methyl-3-(3-(4-(2-(((2-methyloxazol-5-yl)methyl)amino)pyrimidin-4-yl)thiazol-2-yl)phenyl)pyrrolidin-2-one] was tested, and the IC50 [1] was under 0.1 µM and the IC50 [2, 3] was over 0.501 µM.
For CN1CC[C@@](O)(c2cccc(-c3nc(-c4ccnc(NC5CCOCC5)n4)cs3)c2)C1=O [Example 181], the IC50 [1] was 0.1 to 0.5 µM and the IC50 [2, 3] was over 0.501 µM.
For CN1CC[C@@](O)(c2cccc(-c3nc(-c4ccnc(Nc5ccnnc5)n4)cs3)c2)C1=O [Example 267, (R)-3-hydroxy-1-methyl-3-(3-(4-(2-(pyridazin-4-ylamino)pyrimidin-4-yl)thiazol-2-yl)phenyl)pyrrolidin-2-one], the IC50 [1] was over 0.501 µM and the IC50 [2, 3] was over 0.501 µM.
For CN1CC[C@@](O)(c2cccc(-c3nc(-c4ccnc(Nc5ccn(CCO)n5)n4)cs3)c2)C1=O [Example 286, (R)-3-hydroxy-3-(3-(4-(2-((1-(2-hydroxyethyl)-1H-pyrazol-3-yl)amino)pyrimidin-4-yl)thiazol-2-yl)phenyl)-1-methylpyrrolidin-2-one], the IC50 [1] was under 0.1 µM and the IC50 [2, 3] was 0.1 to 0.5 µM.
Compound CN1CC[C@@](O)(c2cccc(-c3nc(-c4ccnc(NCCC(F)(F)F)n4)cs3)c2)C1=O [Example 236] has an IC50 [1] of under 0.1 µM and an IC50 [2, 3] of over 0.501 µM.
COc1c(Nc2nccc(-c3csc(-c4cccc([C@]5(O)CCN(C)C5=O)c4)n3)n2)ccnc1C [Example 74, (R)-3-hydroxy-3-(3-(4-(2-((3-methoxy-2-methylpyridin-4-yl)amino)pyrimidin-4-yl)thiazol-2-yl)phenyl)-1-methylpyrrolidin-2-one] was tested, and the IC50 [1] was 0.1 to 0.5 µM and the IC50 [2, 3] was over 0.501 µM.
Cc1nnc(Nc2nccc(-c3csc(-c4cccc([C@]5(O)CCN(C)C5=O)c4)n3)n2)o1 [Example 175] was tested, and the IC50 [1] was 0.1 to 0.5 µM and the IC50 [2, 3] was over 0.501 µM.
CN1CC[C@@](O)(c2cccc(-c3nc(-c4ccnc(N[C@@H]5CCOC5)n4)cs3)c2)C1=O [Example 251] was tested, and the IC50 [1] was under 0.1 µM and the IC50 [2, 3] was over 0.501 µM.
Cc1c(CNc2nccc(-c3csc(-c4cccc([C@]5(O)CCN(C)C5=O)c4)n3)n2)cnn1C [Example 118, (R)-3-(3-(4-(2-(((1,5-dimethyl-1H-pyrazol-4-yl)methyl)amino)pyrimidin-4-yl)thiazol-2-yl)phenyl)-3-hydroxy-1-methylpyrrolidin-2-one] showed an IC50 [1] of under 0.1 µM and an IC50 [2, 3] of over 0.501 µM.
For CN1CCC(O)(c2cc(C#N)cc(-c3csc(-c4ccnc(Nc5ccn(C)n5)n4)n3)c2)C1=O (single isomer, unassigned) [Example 57, 3-(3-hydroxy-1-methyl-2-oxopyrrolidin-3-yl)-5-(2-(2-((1-methyl-1H-pyrazol-3-yl)amino)pyrimidin-4-yl)thiazol-4-yl)benzonitrile], the IC50 [1] was under 0.1 µM and the IC50 [2, 3] was over 0.501 µM.
CC(=O)N1CC(Nc2nccc(-c3csc(-c4cccc([C@]5(O)CCN(C)C5=O)c4)n3)n2)C1 [Example 172] was tested, and the IC50 [1] was 0.1 to 0.5 µM and the IC50 [2, 3] was over 0.501 µM.
Cc1cn(-c2ccnc(Nc3ccn(C)n3)n2)nc1-c1cc(C2(O)CCN(C)C2=O)ccn1 (racemic) [Example 32, (R, S)-3-Hydroxy-1-methyl-3-(2-(4-methyl-1-(2-((1-methyl-1H-pyrazol-3-yl)amino)pyrimidin-4-yl)-1H-pyrazol-3-yl)pyridin-4-yl)pyrrolidin-2-one] gave an IC50 [1] of under 0.1 µM and an IC50 [2, 3] of over 0.501 µM.
In the case of CN1C[C@@H](Nc2nccc(-c3csc(-c4cccc([C@]5(O)CCN(C)C5=O)c4)n3)n2)CC1=O (single isomer, unassigned) [Example 235], the IC50 [1] is reported as under 0.1 µM and the IC50 [2, 3] is reported as over 0.501 µM.
CN1CCC(O)(c2ccnc(-c3nc(-c4ccnc(Nc5ccn(C)n5)n4)cs3)c2)C1=O (single isomer, unassigned) [Example 34, 3-hydroxy-1-methyl-3-(2-(4-(2-((1-methyl-1H-pyrazol-3-yl)amino)pyrimidin-4-yl)thiazol-2-yl)pyridin-4-yl)pyrrolidin-2-one] showed an IC50 [1] of under 0.1 µM and an IC50 ([2]; p-IKKa levels in L363 cells) of 0.1 to 0.5 µM.
